{
  "source": "patent US6348583B1",
  "about": "“Poly(ether-thioether), poly(ether-sulfoxide) and poly(ether-sulfone) nucleic acids” (Bio-Rad Laboratories, Inc., priority 1999, dated 2002)",
  "origin": "cited, not measured here",
  "key": {"[1]": {"conditions": "aqueous buffers"}, "dA10": {"system": "dA10", "conditions": "duplex with dA10"}},
  "note": "Like-named read-outs stand apart in the source and are kept apart here.",
  "data": [
    {"substance": "d(ApG)8: methylphosphonate oligonucleotide analog, SEQ ID NO:22 (DNA GAGAGAGAGAGAGAGA; methylphosphonate backbone, further chemistry not given here)", "values": [
      {"measurement": "solubility", "setting": "[1]", "result": "less than 0.1 mM"}
    ]},
    {"substance": "d(CpT)8: methylphosphonate oligonucleotide analog, SEQ ID NO:21 (DNA CTCTCTCTCTCTCTCT; methylphosphonate backbone, further chemistry not given here)", "values": [
      {"measurement": "solubility", "setting": "[1]; result in words", "result": "soluble up to millimolar concentrations"}
    ]},
    {"substance": "dT10: native DNA dT10, duplex with dA10 (SEQ ID NO:18) (TTTTTTTTTT)", "values": [
      {"measurement": "Tm value", "setting": "dA10", "result": "about 24 °C"}
    ]}
  ]
}
